Values quoted from earlier work as cited in patent publication US12508236B2, “Solid nanoparticle with inorganic coating” (Nanexa AB, priority 2013, dated 2025).
“Also recorded” adds a separate entry of the source.

| Compound | water solubility | solubility in heptane (heptane) |
| --- | --- | --- |
| CCOC(=O)C1=C(C)NC(C)=C(C(=O)OC)C1c1cccc(Cl)c1Cl (racemic) [Felodipine, (RS)-3-ethyl 5-methyl 4-(2,3-dichlorophenyl)-2,6-dimethyl-1,4-dihydropyridine-3,5-dicarboxylate] | very low water solubility | – |
| CC(=O)Nc1ccc(O)cc1 [Paracetamol, N-(4-hydroxifenyl)acetamid] | high water solubility; also recorded: very water soluble | low solubility |
